Experimental data reported in the RepoRT retention time repository (doi:10.1016/j.chroma.2019.01.023).

Legend:
Conditions in all cases: stereoisomer not certain
[1] = HILIC, Merck SeQuant ZIC-pHILIC, 150 × 2.1 mm, 5 µm, 40 °C, 0.3 mL/min, estimated dead time 1.1 min; A: acetonitrile; B: water + 2.8 mM ammonium formate, pH 9; gradient (min/%B) 0/5 1/5 10/51 13/51 13.1/5 20/5
[2] = HILIC, Waters ACQUITY UPLC BEH Amide, 150 × 2.1 mm, 1.7 µm, 40 °C, 0.5 mL/min, estimated dead time 0.66 min; A: 5% water + 95% acetonitrile; B: 70% water + 30% acetonitrile + 10 mM ammonium formate, pH 6.5; gradient (min/%B) 0/0 2/0 20/70 23/70 24/0 31/0
[3] = RP, Phenomenex Kinetex C18, 150 × 2.1 mm, 1.7 µm, 30 °C, 0.3 mL/min, estimated dead time 1.1 min; A: water + 0.1% formic acid, pH 3; B: acetonitrile + 0.1% formic acid, pH 3; gradient (min/%B) 0/2 14/100 17/100 17.1/2 25/2
[4] = as above; remark: listed apart in the source

SMILES | LC retention time [1] [min] | LC retention time [2] [min] | LC retention time [3] [min] | LC retention time [4] [min]
O=C(O)c1ccc2ccccc2n1 [2-QUINOLINECARBOXYLATE] | 5.63 | 8.23 | 4.39 | –
O=C(O)c1ccc([O-])c(O)c1 [3,4-DIHYDROXYBENZOATE] | 8.04 | – | 3.88 | 3.77
Nc1ccc(C(=O)[O-])cc1 [4-AMINOBENZOATE] | 4.05 | 1.11 | 3.83 | –
O=C(O)C=Cc1ccc(O)cc1 [4-COUMARATE] | 5.24 | – | 5.65 | 5.47
COc1cc(C(O)CO)ccc1O (stereo not drawn) [4-HYDROXY-3-METHOXYPHENYLGLYCOL] | – | 1.01 | 3.21 | –
O=C(O)c1ccc([O-])cc1 [4-HYDROXYBENZOATE] | – | – | 4.66 | 4.51
Cc1cc2nc[nH]c2cc1C [5,6 DIMETHYLBENZIMIDAZOLE] | – | 0.92 | 4.83 | –
NC(Cc1c[nH]c2ccc(O)cc12)C(=O)O (stereo not drawn) [5-HYDROXYTRYPTOPHAN] | 8.74 | – | 3.05 | 2.99
CCCCC(CC)COC(=O)c1ccccc1C(=O)OCC(CC)CCCC (stereo not drawn) [BIS(2-ETHYLHEXYL)PHTHALATE] | – | – | 9.11 | 9.02
Cn1c(=O)c2c(ncn2C)n(C)c1=O [CAFFEINE] | – | 1.03 | 4.68 | –
Nc1nc2c(ncn2C2OC3COP(=O)(O)OC3C2O)c(=O)[nH]1 (stereo not drawn) [CYCLIC GMP] | 8.22 | – | 2.8 | 2.64
CC(CCC(=O)O)C1CCC2C3CCC4CC(O)CCC4(C)C3CC(O)C12C (stereo not drawn) [DEOXYCHOLATE] | – | 1.01 | 10.8 | –
CC(=O)OCC(=O)C1CCC2C3CCC4=CC(=O)CCC4(C)C3CCC12C (stereo not drawn) [DEOXYCORTICOSTERONE ACETATE] | – | – | 11 | –
CC(C)=CCCC(C)C1CCC2C3CC=C4CC(O)CCC4(C)C3CCC12C (stereo not drawn) [DESMOSTEROL] | – | – | 15.4 | –
CC(O)C(O)C1=Nc2c(nc(N)[nH]c2=O)NC1 (stereo not drawn) [DIHYDROBIOPTERIN] | 5.52 | – | 2.14 | 4.09
CC12CCC3c4ccc(O)cc4CCC3C1CCC2O (stereo not drawn) [ESTRADIOL-17ALPHA] | – | – | 9.34 | –
CCOC(=O)Cc1c[nH]c2ccccc12 [ETHYL 3-INDOLEACETATE] | – | – | 9.17 | –
Cc1cc2nc3c(=O)[nH]c(=O)nc-3n(CC(O)C(O)C(O)COP(=O)(O)OP(=O)(O)OCC3OC(n4cnc5c(N)ncnc54)C(O)C3O)c2cc1C (stereo not drawn) [FAD] | 8.07 | – | 4.21 | –
CCCCCC=CCC=CCC=CCCCCC(=O)[O-] [GAMMA-LINOLENATE] | – | – | 11.8 | 11.8
CCCCCCCCCCCCCC(=O)OCC(O)CO (stereo not drawn) [GLYCEROL-MYRISTATE] | – | – | 13.3 | –
CC(CCC(=O)NCC(=O)O)C1CCC2C3C(O)CC4CC(O)CCC4(C)C3CCC12C (stereo not drawn) [GLYCOCHENODEOXYCHOLATE] | 4.94 | – | 9.28 | 9.21
CC(CCC(=O)NCC(=O)O)C1CCC2C3C(O)CC4CC(O)CCC4(C)C3CC(O)C12C (stereo not drawn) [GLYCOCHOLATE] | 5.5 | 6.3 | 8.13 | –

SMILES | LC retention time [1] [min] | LC retention time [2] [min] | LC retention time [3] [min] | LC retention time [4] [min]
O=C([O-])Cc1c[nH]c2ccccc12 [INDOLE-3-ACETATE] | – | – | 6.54 | –
COC(=O)Cc1c[nH]c2ccccc12 [INDOLE-3-METHYL ACETATE] | – | – | 8.33 | –
O=CCc1c[nH]c2ccccc12 [INDOLEACETALDEHYDE] | – | 1.02 | 4.83 | –
NC(Cc1cc(I)c(Oc2ccc(O)c(I)c2)c(I)c1)C(=O)O (stereo not drawn) [LIOTHYRONINE] | 6.19 | – | 7.42 | 7.41
NC(=O)CCCCC1CCSS1 (stereo not drawn) [LIPOAMIDE] | – | 0.88 | 6.87 | –
CC(C)=CCCC(C)=CCCC(C)=CCCC(C)=CCCC(C)=CCCC(C)=CCCC(C)=CCC1=C(C)C(=O)c2ccccc2C1=O [MENAQUINONE] | – | – | 11.9 | –
CC(O)(CCO)CC(=O)[O-] (stereo not drawn) [MEVALONATE] | 6.07 | 3.94 | – | 1.99
CCCCCCCCCCCCCC(=O)O [MYRISTATE] | – | – | 11.6 | –
O=C([O-])c1cccnc1 [NICOTINATE] | 5.76 | 3.5 | – | 1.41
CCCCCCCCCCCCCCCC(=O)O [PALMITATE] | – | – | 11.8 | –
O=CCc1ccccc1 [PHENYLACETALDEHYDE] | – | – | 9.47 | –
Nc1nc2nccnc2c(=O)[nH]1 [PTERIN] | 6.57 | 4.43 | – | 2.05
c1ncc2[nH]cnc2n1 [PURINE] | 3.4 | 1.89 | – | 1.92
Cc1ncc(CO)c(C=O)c1O [PYRIDOXAL] | 2.6 | 1.81 | – | 1.4
O=C1CCC(C(=O)O)N1 (stereo not drawn) [PYROGLUTAMATE] | – | – | 1.71 | –
CC(C=CC1=C(C)CCCC1(C)C)=CC=CC(C)=CC(=O)[O-] [RETINOATE] | – | – | 11.2 | 8.2
Cn1cnc2c1c(=O)[nH]c(=O)n2C [THEOBROMINE] | 1.93 | 1.32 | 3.68 | –
NCCc1c[nH]c2ccccc12 [TRYPTAMINE] | – | 7.11 | 5.12 | –
O=C([O-])c1c[nH]c(=O)[nH]c1=O [URACIL 5-CARBOXYLATE] | – | – | 1.93 | 1.8
O=c1cc[nH]c(=O)[nH]1 [URACIL] | 4.25 | 1.83 | – | 1.41
O=c1[nH]c(=O)c2[nH]c(=O)[nH]c2[nH]1 [URATE] | 8.13 | 2.25 | – | 1.52
O=C(O)C=Cc1cnc[nH]1 [UROCANATE] | 7.08 | 4.08 | – | 1.43

The remaining lines, values ahead:

LC retention time [1] [min] | LC retention time [2] [min] | LC retention time [3] [min] | LC retention time [4] [min] | SMILES
7.41 | – | 4.95 | 4.8 | N[C@@H](Cc1cc(I)c(O)c(I)c1)C(=O)O [3,5-DIIODO-L-TYROSINE]
8.15 | – | 2.36 | 2.24 | CC(O)(CC(=O)O)CC(=O)O [3-HYDROXYMETHYLGLUTARATE]
7.37 | – | 3.56 | 3.48 | N[C@@H](Cc1ccc(O)c([N+](=O)[O-])c1)C(=O)O [3-NITRO-L-TYROSINE]
1.69 | – | 2.83 | 2.73 | Cc1ncc(CO)c(C(=O)O)c1O [4-PYRIDOXATE]
6.74 | – | 4.73 | 4.56 | O=C(O)CCCCCC(=O)O [6-CARBOXYHEXANOATE]
9.42 | – | 4.35 | 11.3 | Nc1nc2ncc(CNc3ccc(C(=O)NC(CCC(=O)O)C(=O)O)cc3)nc2c(=O)[nH]1 (stereo not drawn) [FOLATE]
9.15 | – | 1.63 | 1.57 | N[C@@H](Cc1ccc(O)c(O)c1)C(=O)O [L-DOPA]
9.39 | – | 2.8 | – | O=C(O)CC(O)C(=O)O (stereo not drawn) [MALATE]
8.84 | 3.48 | – | 1.45 | CC(=O)NC(CC(=O)O)C(=O)O (stereo not drawn) [N-ACETYLASPARTATE]
8.75 | – | 1.9 | 1.78 | CC(=O)NC(CCC(=O)O)C(=O)O (stereo not drawn) [N-ACETYLGLUTAMATE]
7.17 | 5.48 | – | 1.41 | CC(=O)NCC(=O)O [N-ACETYLGLYCINE]
6.05 | – | 3.52 | 3.39 | CC(=O)N1CCCC1C(=O)O (stereo not drawn) [N-ACETYLPROLINE]
7.04 | 7.75 | – | 2.19 | CCCCC(N)C(=O)O (stereo not drawn) [NORLEUCINE]
7.52 | 8.68 | – | 1.33 | CCCC(N)C(=O)O (stereo not drawn) [NORVALINE]
8.3 | 11.8 | – | 1.45 | NC(CCOC(=O)CCC(=O)O)C(=O)O (stereo not drawn) [O-SUCCINYL-HOMOSERINE]
– | – | 6.27 | 6.22 | CCCCCCSCC(NC(=O)CCC(N)C(=O)O)C(=O)NCC(=O)O (stereo not drawn) [S-HEXYL-GLUTATHIONE]
6.81 | 8.56 | 1.76 | – | C[Se]CCC(N)C(=O)O (stereo not drawn) [SELENOMETHIONINE]
5.2 | 4.7 | – | 5.34 | O=C(O)CCCCCCC(=O)O [SUBERATE]
6.53 | 8.34 | – | 2.14 | NC(=O)C1CCCN1C(=O)C(Cc1cnc[nH]1)NC(=O)C1CCC(=O)N1 (stereo not drawn) [THYROTROPIN RELEASING HORMONE]
7.98 | 5.27 | – | 1.4 | NC(=O)NCCC(=O)O [UREIDOPROPIONATE]
